Results from patent US9534008B2, “Small molecule compounds that control plant- and insect-pathogenic nematodes” (California Institute of Technology, priority 2011, dated 2017).
Entries after “also recorded” stand apart in the source; their conditions may differ.

Key:
P. redivivus females = assay: Retention assay, P. redivivus females; settings: in vivo
Description: OP50 E. coli was grown on a standard 5 cm agar plate (made with standard Nematode Growth Medium). The bacterial lawn was 16 mm in diameter and was grown overnight at 20° C. before being used in trials. Two 4 mm spots (0.6 μL) were placed on opposite sides of the bacterial lawn (using a transparent template to guide spot placement), and several minutes elapsed for the liquid to settle in before placing nematodes down on the assay. Recording began immediately upon worm placement. […]
Nematodes were isolated by gender at the L4 stage the day before being used in trials as developed adults. […] Trials were recorded for 20 minutes, and frames were collected for analysis at 1 frame per second. […]
A video camera attached to the microscope produced a digital video stream, which was then analyzed. The ratio of the time the average worm spent in each region of interest was calculated for every trial. […] Thus worm pixels were counted instead of whole worms, allowing fractions of a worm in the region of interest to be taken into account. It also eliminated the need for a shape-based worm identification algorithm, and allowed each frame to be analyzed independently. […] Thus, the ratio of worm-pixels to all pixels inside the region of interest can be calculated to produce the worm-occupancy ratio. […]

C. elegans [1] = settings: in vivo; cited from earlier work
C. elegans [2] = assay: Aggregation assay; format: in vivo
Description: Aggregation behavior of worms was measured using assays reported in de Bono & Bargmann, Cell 94:679-89 (1998), which is hereby incorporated by reference in its entirety. Aggregation assays were conducted on standard NGM plates. Plates containing indole ascarosides were made by adding the indole ascaroside stock solution to the NGM media before they were poured onto the plates. These plates were dried at room temperature for 2 to 3 days. Control plates were treated similarly, except that ethanol solutions instead of icas solutions were added to the plates, corresponding to the amount of ethanol introduced via the icas solutions. Final ethanol concentrations of the plates were below 0.1% for all conditions. After drying, both control plates and plates containing indole ascarosides were seeded with 150 μl of an overnight culture of E. coli OP50 using a micropipette, and were allowed to dry for 2 days at room temperature. For “low worm density” experiments, 20 worms were placed onto the lawn and left at 20° C. for 3 hours. For “high worm density” experiments, approximately 120 worms were placed onto the bacterial lawn and left at 20° C. for 3 hours. Aggregation behavior was quantified as the number of animals that were in touch with two or more animals at greater than 50% of their body length.

S. feltiae = assay: Ascaroside function (Table 12), S. feltiae; format: in vivo, Steinernema feltiae
Description: Various ascarosides and ascaroside blends were administered to various nematodes described below (Table 12). […] A very strong result of affecting nematode behavior is designated in the table as “strong.”

C. elegans [3] = settings: in vivo; cited from earlier work; remark: listed apart in the source
[4] = system: C. elegans hermaphrodites and males; assay: Spot attraction assay; format: in vivo
Description: The spot attraction assays were conducted according to a previously reported method (Pungaliya et al., PNAS 106:7708-13 (2009); Srinivasan et al., Nature 454:1115-18 (2008), which are hereby incorporated by reference in their entirety). For both C. elegans hermaphrodites and males, 50-60 worms were harvested daily at the fourth larval stage (L4) and stored segregatedly by sex at 20° C. overnight, to be used as young adults the following day. For the competition experiments, two conditions were used: 120 nM ascr#3 and 10 nM icas#3 (Condition 1), or 12 μM ascr#3 and 1 μM icas#3 (Condition 2) in water containing 10% ethanol. Aliquots were stored at −20° C. in 20 μL tubes. 10% ethanol in water was used as control.
Attraction assays with hbas#3 were conducted as previously reported (Srinivasan et al., Nature 454:1115-18 (2008); Pungaliya et al., Proc. Natl. Acad. Sci. U.S.A. 106:7708-13 (2009), which are hereby incorporated by reference in their entirety). For the attraction assays, 50-60 hermaphrodite worms were harvested daily at the early fourth larval stage (L4) and stored at 20° C. overnight to be used as young adults the following day. Hbas#3 was dissolved in water containing 10% ethanol. Aliquots were stored at −20° C. in 20 μL tubes. 10% ethanol in water was used as control.

Panagrellus redivivus = assay: Ascaroside function (Table 12), Panagrellus redivivus; format: in vivo
Method in brief: (§1)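 Ascarosides, alone or blended, administered to nematodes; behavior change scored qualitatively, with "strong" denoting a very strong effect.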

C. elegans [5] = assay: Ascaroside function (Table 12), C. elegans; format: in vivo, Caenorhabditis elegans; design: key to Attract Females/Herm. / Promote Dauer Formation / Attract Males: A very strong result of affecting nematode behavior is designated in the table as “strong.”
Method in brief: as §1

Structure (SMILES): C[C@H](CCC(=O)O)O[C@@H]1O[C@@H](C)[C@H](OC(=O)c2c[nH]c3ccccc23)C[C@H]1O [icas#9]
- response of P. redivivus females (P. redivivus females): repealed
- dauer-inducing activity (C. elegans [1]): moderate; also recorded: promote dauer entry
- shape of dauer response curve (C. elegans [1]): bell-shaped
- active concentration window (hermaphrodite attraction and aggregation) (C. elegans [2]; in vivo): femtomolar to picomolar; also recorded: fM-pM
- aggregation of solitary and social hermaphrodites (C. elegans [2]; low worm density (20 worms per 5 cm plate)): increased aggregation
- Dispersal (of dauer larvae, infectious juveniles) (S. feltiae): icas#9
- aggregation in C. elegans (C. elegans [3]): aggregating stimulant
- attraction of both C. elegans sexes ([4]; high concentrations, 1 μmol, N2 hermaphrodites and him-5 males): attractive; also recorded: attracted
- attraction of males ([4]; low concentrations, males): but not males
- Repel Females/Herm. (Panagrellus redivivus): icas#9
- Attract Females/Herm. (C. elegans [5]): ([strong])
- Promote Dauer Formation (C. elegans [5]): icas#9
